Experimental data: publication PMC11277489, “Novel Piperazine Derivatives of Vindoline as Anticancer Agents” (International Journal of Molecular Sciences, 2024)
Read-outs that look alike come from different tables or passages of the source.

Columns and labels:
BT-549 = experiment: NCI60 one-dose screen (10 μM), Breast Cancer; assay type: cell-based; conditions: Homo sapiens
DU-145 = experiment: NCI60 one-dose screen (10 μM), Prostate Cancer; assay type: cell-based; conditions: Homo sapiens
SK-MEL-2 = experiment: NCI60 one-dose screen (10 μM), Melanoma; assay type: cell-based; conditions: Homo sapiens
OVCAR-3 = experiment: NCI60 one-dose screen (10 μM), Ovarian Cancer; assay type: cell-based; conditions: Homo sapiens
NCI/ADR-RES = experiment: NCI60 one-dose screen (10 μM), Ovarian Cancer; assay type: cell-based; conditions: Homo sapiens, read-out: Growth percent rate
MDA-MB-468 = experiment: NCI60 one-dose screen (10 μM), Breast Cancer; assay type: cell-based; conditions: Homo sapiens
CCRF-CEM = experiment: NCI60 one-dose screen (10 μM), Leukemia; assay type: cell-based; conditions: Homo sapiens, read-out: Growth percent rate
KM12 = experiment: NCI60 one-dose screen (10 μM), Colon Cancer; assay type: cell-based, human; conditions: Homo sapiens
PC-3 = experiment: NCI60 one-dose screen (10 μM), Prostate Cancer; assay type: cell-based; conditions: Homo sapiens
SNB-75 = experiment: NCI60 one-dose screen (10 μM), CNS Cancer; assay type: cell-based, human; conditions: Homo sapiens
NCI-H226 = experiment: NCI60 one-dose screen (10 μM), Non-small Cell Lung Cancer; assay type: cell-based; conditions: Homo sapiens
HOP-92 = experiment: as above; assay type: cell-based; conditions: Homo sapiens; 10 μM; HOP-92, Non-small Cell Lung Cancer; read-out: Growth percent rate
SK-OV-3 = experiment: NCI60 one-dose screen (10 μM), Ovarian Cancer; assay type: cell-based; conditions: Homo sapiens
UACC-62 = experiment: NCI60 one-dose screen (10 μM), Melanoma; assay type: cell-based; conditions: Homo sapiens
OVCAR-5 = experiment: NCI60 one-dose screen (10 μM), Ovarian Cancer; assay type: cell-based; conditions: Homo sapiens
MDA-MB-231/ATCC = experiment: NCI60 one-dose screen (10 μM), Breast Cancer; assay type: cell-based, human; conditions: Homo sapiens
UO-31 = experiment: NCI60 one-dose screen (10 μM), Renal Cancer; assay type: cell-based; conditions: Homo sapiens
T-47D = experiment: NCI60 one-dose screen (10 μM), Breast Cancer; assay type: cell-based; conditions: Homo sapiens, T47D, read-out: Growth percent rate
SR = experiment: NCI60 one-dose screen (10 μM), Leukemia; assay type: cell-based; conditions: Homo sapiens, read-out: Growth percent rate
[1] = 10 μM, BT-549, Breast Cancer, read-out: Growth percent rate
[2] = 10 μM, DU-145, Prostate Cancer, read-out: Growth percent rate
[3] = 10 μM, SK-MEL-2, Melanoma, read-out: Growth percent rate
[4] = 10 μM, OVCAR-3, Ovarian Cancer, read-out: Growth percent rate
[5] = 10 μM, MDA-MB-468, Breast Cancer, read-out: Growth percent rate
[6] = 10 μM, KM12, Colon Cancer, read-out: Growth percent rate
[7] = 10 μM, PC-3, Prostate Cancer, read-out: Growth percent rate
[8] = 10 μM, SNB-75, CNS Cancer, read-out: Growth percent rate
[9] = 10 μM, NCI-H226, Non-small Cell Lung Cancer, read-out: Growth percent rate
[10] = 10 μM, SK-OV-3, Ovarian Cancer, read-out: Growth percent rate
[11] = 10 μM, UACC-62, Melanoma, read-out: Growth percent rate
[12] = 10 μM, OVCAR-5, Ovarian Cancer, read-out: Growth percent rate
[13] = 10 μM, MDA-MB-231/ATCC, Breast Cancer, read-out: Growth percent rate
[14] = 10 μM, UO-31, Renal Cancer, read-out: Growth percent rate
[15] = OVCAR-5, read-out: Growth percent rate
[16] = BT-549, read-out: Growth percent rate
[17] = MDA-MB-231, read-out: Growth percent rate
[18] = DU-145, read-out: Growth percent rate
[19] = SK-MEL-2, read-out: Growth percent rate
[20] = OVCAR-3, read-out: Growth percent rate
[21] = UO-31, read-out: Growth percent rate
[22] = KM12, read-out: Growth percent rate
[23] = SNB-75, read-out: Growth percent rate
[24] = NCI-H226, read-out: Growth percent rate
[25] = SK-OV-3, read-out: Growth percent rate
[26] = UACC-62, read-out: Growth percent rate

SMILES	activity at 10 µM (BT-549; [1]) [%]	activity at 10 µM (DU-145; [2]) [%]	activity at 10 µM (SK-MEL-2; [3]) [%]	activity at 10 µM (OVCAR-3; [4]) [%]	activity at 10 µM (NCI/ADR-RES; 10 μM, Ovarian Cancer) [%]	activity at 10 µM (MDA-MB-468; [5]) [%]	activity at 10 µM (CCRF-CEM; 10 μM, Leukemia) [%]	activity at 10 µM (KM12; [6]) [%]	activity at 10 µM (PC-3; [7]) [%]	activity at 10 µM (SNB-75; [8]) [%]	activity at 10 µM (NCI-H226; [9]) [%]	activity at 10 µM (HOP-92) [%]	activity at 10 µM (SK-OV-3; [10]) [%]	activity at 10 µM (UACC-62; [11]) [%]	activity at 10 µM (OVCAR-5; [12]) [%]	activity at 10 µM (MDA-MB-231/ATCC; [13]) [%]	activity at 10 µM (UO-31; [14]) [%]	activity at 10 µM (T-47D; 10 μM, T-47D, Breast Cancer) [%]	activity at 10 µM (SR; 10 μM, Leukemia) [%]	further results
CCC12C=CCN3CCC4(c5cc(NC(=O)CCl)c(OC)cc5N(C)C4C(O)(C(=O)OC)C1OC(C)=O)C32 (stereo not shown) [Compound 12, 10-chloroacetamidovindoline]	14.7	43.9	-69.6	-14.7	79.4	-40.8	12.6	41.5	24.5	-8.81	43.5	34.3	33.9	22.1						
CCC12C=CCN3CCC4(c5ccc(OC)cc5N(C)C4C(O)(C(=O)OC)C1OC(=O)CCC(=O)O)C32 (stereo not shown) [Compound 15, 17-(O-3-carboxypropanoyl)vindoline]	80.5	98.1	100	74.9	94.6	98.7	105	82.8	87.7	53.4	66.6	98.8	92.3	92.4						
CCC12C=CCN3CCC4(c5cc(NC(=O)CN6CCN(C)CC6)c(OC)cc5N(C)C4C(O)(C(=O)OC)C1OC(C)=O)C32 (stereo not shown) [Compound 16]	113	115	108	138	104		112	112	93.1	95.6	101		113	98.9	102	102	89.4	104	93.8	
CCC12C=CCN3CCC4(c5cc(NC(=O)CN6CCN(Cc7ccc(C(F)(F)F)cc7)CC6)c(OC)cc5N(C)C4C(O)(C(=O)OC)C1OC(C)=O)C32 (stereo not shown) [Compound 18]																				activity at 10 µM (OVCAR-5; [15]): 108%; activity at 10 µM (BT-549; [16]): 47%; activity at 10 µM (MDA-MB-231/ATCC; [17]): 43.7%; activity at 10 µM (DU-145; [18]): 71.6%; activity at 10 µM (SK-MEL-2; [19]): 72.9%; activity at 10 µM (OVCAR-3; [20]): 84.5%; activity at 10 µM (NCI/ADR-RES): 61.9%; activity at 10 µM (MDA-MB-468; MDA-MB-468, read-out: Growth percent rate): 39.8%; activity at 10 µM (UO-31; [21]): 50%; activity at 10 µM (CCRF-CEM): 39.4%; activity at 10 µM (KM12; [22]): 83%; activity at 10 µM (SNB-75; [23]): 20.3%; activity at 10 µM (T-47D): 51.4%; activity at 10 µM (NCI-H226; [24]): 67.7%; activity at 10 µM (SK-OV-3; [25]): 87%; activity at 10 µM (UACC-62; [26]): 74.4%; activity at 10 µM (SR): 48.2%
CCC12C=CCN3CCC4(c5cc(NC(=O)CN6CCN(Cc7ccc(F)cc7)CC6)c(OC)cc5N(C)C4C(O)(C(=O)OC)C1OC(C)=O)C32 (stereo not shown) [Compound 19]																				activity at 10 µM (OVCAR-5; [15]): 111%; activity at 10 µM (BT-549; [16]): 101%; activity at 10 µM (MDA-MB-231/ATCC; [17]): 102%; activity at 10 µM (DU-145; [18]): 111%; activity at 10 µM (SK-MEL-2; [19]): 103%; activity at 10 µM (OVCAR-3; [20]): 119%; activity at 10 µM (NCI/ADR-RES): 97.3%; activity at 10 µM (UO-31; [21]): 89.1%; activity at 10 µM (CCRF-CEM): 105%; activity at 10 µM (KM12; [22]): 115%; activity at 10 µM (PC-3; PC-3, read-out: Growth percent rate): 73.6%; activity at 10 µM (SNB-75; [23]): 87.3%; activity at 10 µM (T-47D): 93%; activity at 10 µM (NCI-H226; [24]): 97.8%; activity at 10 µM (SK-OV-3; [25]): 108%; activity at 10 µM (UACC-62; [26]): 96.9%; activity at 10 µM (SR): 75.3%
CCC12C=CCN3CCC4(c5cc(NC(=O)CN6CCN(C(=O)c7ccco7)CC6)c(OC)cc5N(C)C4C(O)(C(=O)OC)C1OC(C)=O)C32 (stereo not shown) [Compound 21]	117	110	111	118	112	120	103	99.8		91	111		113	103	121	98.8	89.3	111	97.2	
CC[C@]12C=CCN3CC[C@@]4(c5ccc(OC)cc5N(C)[C@H]4[C@@](O)(C(=O)OC)[C@@H]1OC(=O)CCCN1CCN(C(=O)c4ccco4)CC1)[C@@H]32 [Compound 26]	96.8	105	109	121	91.8		103	108	80.5	68.3	94.9		108	86.4	112	102	80.6	82.2	75.4	
CC[C@]12C=CCN3CC[C@@]4(c5ccc(OC)cc5N(C)[C@H]4[C@@](O)(C(=O)OC)[C@@H]1OC(=O)CCC(=O)N1CCN(C)CC1)[C@@H]32 [Compound 27]	88.6	103	88.2	89.2	107	124	104	100	101	64.3	80.4	105	106	112						
